Measured values reported in US20250188057A1, “NON-AROMATIC CYCLIC-PYRIMIDINE ANALOGS AS GLUCOSYLCERAMIDE SYNTHASE INHIBITORS” (Merck Sharp & Dohme LLC, priority 2022, published 2025).

Each compound was assayed against glucosylceramide synthase (GCS) (Homo sapiens (Human), UniProt Q16739) (assay: UDP-Glo glucosylceramide synthase biochemical assay). Conditions: endogenous GCS in Golgi preparations isolated from human A375 malignant melanoma skin cells; UDP detection by luminescence.
From the text: A UDP-Glo™ glucosylceramide synthase biochemical assay was utilized to evaluate the effect of test compounds on the activity of endogenous levels of GCS enzyme contained within Golgi preparations isolated from human A375 malignant melanoma skin cells. The UDP-Glo™ glucosylceramide synthase assay uses UDP-Glucose as a nucleotide-glycosyl donor and ceramide as substrate acceptor molecules. In the reaction, glucosylceramide synthase (GCS) transfers glucose from UDP-Glucose to ceramide. Glucosylceramide and UDP are released as products.
Using Promega's UDP-Glo™ Glycosyltransferase assay kit (Promega Corporation, Madison, WI, USA (Promega)), GCS activity was indirectly measured by detecting the amount of UDP produced. An aliquot of GCS enzyme (1.5 μg crude golgi preparation, total protein) and titrated test compound were aliquoted to each well and incubated for 30 minutes at room temperature. […] An equivalent volume of substrate mixture was then added to each well. Following a 20 h incubation at room temperature to allow for GCS turnover of substrate, an equal volume of UDP detection reagent (Promega) was added to each well and incubated for an additional 75 minutes at room temperature to simultaneously convert the accumulated UDP product into ATP and generate light in a luciferase reaction. The generated light was detected using a luminometer. […] luminescence values (RLUs) were normalized to mean “min” and “max” effects, as determined on each plate. “Min” was defined as the mean of the values of the wells treated with vehicle (DMSO) and which represent 0% inhibition; “max” was defined as the mean of the values of the wells treated with a reference inhibitor and which represent the 100% effect. Values for % Emax and EC50 were determined by best-fitting the normalized data to a curve in Activity Base along a four-parameter logistic nonlinear regression (4PL) model (based on the Levenberg-Marquardt algorithm and defined by the equation below): […]
where: n is 4PMin (bottom of the curve); m is 4PMax (top of the curve); i is IP (inflection point of curve); and p is slope. See Levenberg, K., “A Method for the Solution of Certain Problems in Least Squares”, Quart. Appl. Math. 2, (1944), pp 164-168 and Marquardt, D., “An Algorithm for Least Squares Estimation on Nonlinear Parameters”, SIAM J. Appl. Math 11, (1963) pp 431-441.

Chain of glucosylceramide synthase (GCS) (Q16739 whole entry): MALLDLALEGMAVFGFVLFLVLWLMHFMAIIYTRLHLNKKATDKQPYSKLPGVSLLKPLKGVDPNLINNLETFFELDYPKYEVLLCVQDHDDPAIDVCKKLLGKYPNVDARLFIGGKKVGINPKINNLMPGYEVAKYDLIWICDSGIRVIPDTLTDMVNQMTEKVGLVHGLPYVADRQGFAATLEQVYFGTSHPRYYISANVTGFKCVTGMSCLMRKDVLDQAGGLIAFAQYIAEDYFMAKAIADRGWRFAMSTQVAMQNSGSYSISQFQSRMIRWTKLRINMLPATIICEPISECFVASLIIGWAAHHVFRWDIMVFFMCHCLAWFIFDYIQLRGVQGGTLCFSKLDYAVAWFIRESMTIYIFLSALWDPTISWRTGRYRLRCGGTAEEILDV

IC50 [µM]	Structure (SMILES)
0.266	Cc1nc2c(s1)CCCC2Nc1nc(C2CC2)nc(Cl)c1CO (single isomer, unassigned) [Compound 110, (4-chloro-2-cyclopropyl-6-((2-methyl-4,5,6,7-tetrahydrobenzo[d]thiazol-4-yl)amino)pyrimidin-5-yl)methanol]
0.579	OCc1cnc(C2CC2)nc1OC[C@H]1CCN(c2ccc(C(F)(F)F)nc2)C1 [Compound 1, (S)-(2-cyclopropyl-4-((1-(6-(trifluoromethyl)pyridin-3-yl)pyrrolidin-3-yl)methoxy)pyrimidin-5-yl)methanol]
0.568	OCc1cnc(C2CC2)nc1OC[C@@H]1CCN(c2ccc(C(F)(F)F)nc2)C1 [Compound 2, (R)-(2-cyclopropyl-4-((1-(6-(trifluoromethyl)pyridin-3-yl)pyrrolidin-3-yl)methoxy)pyrimidin-5-yl)methanol]
2.32	OCc1cnc(C2CC2)nc1OC[C@@H]1CN(c2ccc(C(F)(F)F)nc2)CCO1 [Compound 3, (S)-(2-cyclopropyl-4-((4-(6-(trifluoromethyl)pyridin-3-y)morpholin-2-yl)methoxy)pyrimidin-5-yl)methanol]
1.38	OCc1cnc(C2CC2)nc1OC[C@H]1CN(c2ccc(C(F)(F)F)nc2)CCO1 [Compound 4, (R)-(2-cyclopropyl-4-((4-(6-(trifluoromethyl)pyridin-3-yl)morpholin-2-yl)methoxy)pyrimidin-5-yl)methanol]
3.41	OCc1cnc(C2CC2)nc1OCC1CCN(c2ccc(C(F)(F)F)nc2)CC1 [Compound 5, (2-cyclopropyl-4-((1-(6-(trifluoromethyl)pyridin-3-yl)piperidin-4-yl)methoxy)pyrimidin-5-yl)methanol]
1.44	OCc1cnc(C2CC2)nc1OC1CCN(c2ccc(C(F)(F)F)nc2)CC1 [Compound 6, (2-cyclopropyl-4-((1-(6-(trifluoromethyl)pyridin-3-yl)piperidin-4-yl)oxy)pyrimidin-5-yl)methanol]
0.0043	N#Cc1cnc(C2CC2)nc1OC[C@H]1CCN(c2ccc(-n3cccn3)cc2)C1 [Compound 7, (S)-4-((1-(4-(1H-pyrazol-1-yl)phenyl)pyrrolidin-3-yl)methoxy)-2-cyclopropylpyrimidine-5-carbonitrile]
0.889	N#Cc1cnc(C2CC2)nc1OC[C@H]1CCN(c2cnc(-c3ccccc3)o2)C1 [Compound 8, (S)-2-cyclopropyl-4-((1-(2-phenyloxazol-5-yl)pyrrolidin-3-yl)methoxy)pyrimidine-5-carbonitrile]
0.826	N#Cc1cnc(C2CC2)nc1OC[C@H]1CCN(c2cccc(-c3ncco3)c2)C1 [Compound 9, (S)-2-cyclopropyl-4-((1-(3-(oxazol-2-yl)phenyl)pyrrolidin-3-yl)methoxy)pyrimidine-5-carbonitrile]
0.249	N#Cc1cnc(C2CC2)nc1OC[C@H]1CCN(c2cccc(-c3nccs3)c2)C1 [Compound 10, (S)-2-cyclopropyl-4-((1-(3-(thiazol-2-yl)phenyl)pyrrolidin-3-yl)methoxy)pyrimidine-5-carbonitrile]
0.035	N#Cc1cnc(C2CC2)nc1OC[C@H]1CCN(c2ccc(-c3ncco3)cc2)C1 [Compound 11, (S)-2-cyclopropyl-4-((1-(4-(oxazol-2-yl)phenyl)pyrrolidin-3-yl)methoxy)pyrimidine-5-carbonitrile]
0.529	COc1cccc(N2CC[C@H](COc3nc(C4CC4)ncc3C#N)C2)n1 [Compound 12, (S)-2-cyclopropyl-4-((1-(6-methoxypyridin-2-yl)pyrrolidin-3-yl)methoxy)pyrimidine-5-carbonitrile]
0.08	Cc1nnc(-c2ccc(N3CC[C@H](COc4nc(C5CC5)ncc4C#N)C3)cc2)s1 [Compound 13, (S)-2-cyclopropyl-4-((1-(4-(5-methyl-1,3,4-thiadiazol-2-yl)phenyl)pyrrolidin-3-yl)methoxy)pyrimidine-5-carbonitrile]
0.141	N#Cc1cnc(C2CC2)nc1OC[C@H]1CCN(c2sccc2C#N)C1 [Compound 14]
0.816	Cc1nccc(-c2cccc(N3CC[C@H](COc4nc(C5CC5)ncc4C#N)C3)c2)n1 [Compound 15, (S)-2-cyclopropyl-4-((1-(3-(2-methylpyrimidin-4-yl)phenyl)pyrrolidin-3-yl)methoxy)pyrimidine-5-carbonitrile]

IC50 [µM]	Structure (SMILES)
0.357	N#Cc1cnc(C2CC2)nc1OC[C@H]1CCN(c2cccc(-n3cccn3)c2)C1 [Compound 16, (S)-4-((1-(3-(1H-pyrazol-1-yl)phenyl)pyrrolidin-3-yl)methoxy)-2-cyclopropylpyrimidine-5-carbonitrile]
1.02	Cc1cnc(N2CC[C@H](COc3nc(C4CC4)ncc3C#N)C2)c(C)c1 [Compound 17, (S)-2-cyclopropyl-4-((1-(3,5-dimethylpyridin-2-yl)pyrrolidin-3-yl)methoxy)pyrimidine-5-carbonitrile]
0.067	N#Cc1cnc(C2CC2)nc1OC[C@H]1CCN(c2ccc(-c3ccno3)cc2)C1 [Compound 18, (S)-2-cyclopropyl-4-((1-(4-(isoxazol-5-yl)phenyl)pyrrolidin-3-yl)methoxy)pyrimidine-5-carbonitrile]
0.037	N#Cc1cnc(C2CC2)nc1OC[C@H]1CCN(c2ccc(-c3ccon3)cc2)C1 [Compound 19, (S)-2-cyclopropyl-4-((1-(4-(isoxazol-3-yl)phenyl)pyrrolidin-3-yl)methoxy)pyrimidine-5-carbonitrile]
0.354	N#Cc1cnc(C2CC2)nc1OC[C@H]1CCN(c2cccc(-n3nccn3)c2)C1 [Compound 20, (S)-4-((1-(3-(2H-1,2,3-triazol-2-yl)phenyl)pyrrolidin-3-yl)methoxy)-2-cyclopropylpyrimidine-5-carbonitrile]
1.3	N#Cc1cnc(C2CC2)nc1OC[C@H]1CCN(c2cnc3ccsc3c2)C1 [Compound 21, (S)-2-cyclopropyl-4-((1-(thieno[3,2-b]pyridin-6-yl)pyrrolidin-3-yl)methoxy)pyrimidine-5-carbonitrile]
0.026	N#Cc1cnc(C2CC2)nc1OC[C@H]1CCN(c2ccc(-c3cnco3)cc2)C1 [Compound 22, (S)-2-cyclopropyl-4-((1-(4-(oxazol-5-yl)phenyl)pyrrolidin-3-yl)methoxy)pyrimidine-5-carbonitrile]
3.66	N#Cc1cnc(C2CC2)nc1OC[C@H]1CCN(c2nnc(C3CC3)s2)C1 [Compound 23, (S)-2-cyclopropyl-4-((1-(5-cyclopropyl-1,3,4-thiadiazol-2-yl)pyrrolidin-3-yl)methoxy)pyrimidine-5-carbonitrile]
0.377	N#Cc1cnc(C2CC2)nc1OC[C@H]1CCN(c2ccc(C3CC3)nc2)C1 [Compound 24, (S)-2-cyclopropyl-4-((1-(6-cyclopropylpyridin-3-yl)pyrrolidin-3-yl)methoxy)pyrimidine-5-carbonitrile]
0.231	CCOc1ccc(N2CC[C@H](COc3nc(C4CC4)ncc3C#N)C2)cn1 [Compound 25, (S)-2-cyclopropyl-4-((1-(6-ethoxypyridin-3-yl)pyrrolidin-3-yl)methoxy)pyrimidine-5-carbonitrile]
4.67	N#Cc1cnc(C2CC2)nc1OC[C@H]1CCN(c2ncccc2C(F)F)C1 [Compound 26, (S)-2-cyclopropyl-4-((1-(3-(difluoromethyl)pyridin-2-yl)pyrrolidin-3-yl)methoxy)pyrimidine-5-carbonitrile]
3.62	N#Cc1cnc(C2CC2)nc1OC[C@H]1CCN(c2ccnc(C3CCC3)c2)C1 [Compound 27, (S)-4-((1-(2-cyclobutylpyridin-4-yl)pyrrolidin-3-yl)methoxy)-2-cyclopropylpyrimidine-5-carbonitrile]
4.52	COc1ccc(C)nc1N1CC[C@H](COc2nc(C3CC3)ncc2C#N)C1 [Compound 28, (S)-2-cyclopropyl-4-((1-(3-methoxy-6-methylpyridin-2-yl)pyrrolidin-3-yl)methoxy)pyrimidine-5-carbonitrile]
0.148	N#Cc1cnc(C2CC2)nc1OC[C@H]1CCN(c2ccc(OC(F)F)cn2)C1 [Compound 29, (S)-2-cyclopropyl-4-((1-(5-(difluoromethoxy)pyridin-2-yl)pyrrolidin-3-yl)methoxy)pyrimidine-5-carbonitrile]
1.24	Cc1cc(N2CC[C@H](COc3nc(C4CC4)ncc3C#N)C2)ncc1F [Compound 30, (S)-2-cyclopropyl-4-((1-(5-fluoro-4-methylpyridin-2-yl)pyrrolidin-3-yl)methoxy)pyrimidine-5-carbonitrile]
0.028	N#Cc1cnc(C2CC2)nc1OC[C@H]1CCN(c2ccc(-n3ccnc3)cc2)C1 [Compound 31, (S)-4-((1-(4-(1H-imidazol-1-yl)phenyl)pyrrolidin-3-yl)methoxy)-2-cyclopropylpyrimidine-5-carbonitrile]
